Where two headings read alike, the source gives them in different places.
Key:
U2OS cells [1] = assay: Multiplex high-content protocol (nuclei gating, tubulin, mitochondrial mass, membrane permeability); assay type: cell-based, human; conditions: for mitochondrial mass increase detected / marked for tubulin effects while crossing no other phenotypic threshold: threshold > 50%; for viability at 1 µM: Homo sapiens, read-out: healthy nuclei
Description: Using the CQ1 high-content confocal microscope (Yokogawa), cellular shape and fluorescence was measured before and 12 h as well as 24 h after compound treatment. All compounds were diluted in DMSO to a concentration of 10 mM.
The rather large spacing distance was used to create a robust readout, compensating potential plate variations and enabling automated screening without the use of autofocus. The overlap of the fluorescence emission spectra of the dyes was neglectable for all but the MitoTracker Red and Annexin V Alexa Fluor 680 (Supplementary Figure S9).
All images were analyzed using the CellPathfinder software (Yokogawa). Segmentation of cells was performed as described earlier. First, the cells are classified in Hoechst High Intensity Objects or Normal Intensity Objects (Supplementary Table S7). All normal gated cells are further classified in healthy, fragmented or pyknosed nuclei (Supplementary Table S7). The pyknosed cells are gated in mitotic or apoptotic cells using seven features for the cell body and five features for the cell nuclei according to their Annexin V staining intensity (Supplementary Table S7). All cells that were classified as including a healthy nucleus are further gated into three phenotypic classes. […] Growth rate was calculated against non-treated cells and cells treated with DMSO 0.1% [61].

U2OS cells [2] = assay: cells; conditions: Homo sapiens
HCT116-FUCCI cells = assay: FUCCI cell cycle assay with nuclear gating; assay type: cell-based, human; conditions: 10 µM, up to 70 h
Description: For generation of a stable cell line, including the florescent ubiquitination-base cell cycle indicator FUCCI, the plasmid-based transposon system Sleeping Beauty was used. Vector (pSBbi_Fucci) and the Transposase SB100X have been described previously. […] Two days after transfection, cells were selected over 10 days using puromycin (1 µg/mL) and cultivated afterwards for two more weeks in McCoys 5A plus L-Glutamine (Gibco) supplemented by 10% FBS (Gibco) and Penicillin/Streptomycin (Gibco).
Fluorescence and cellular shape were measured before and after compound treatment for 72 h every 12 h using the CQ1 high-content confocal microscope (Yokogawa). […]
Image analysis was performed using the CellPathfinder software (Yokogawa). Segmentation of cells was performed as described earlier. First, the cells are classified in Hoechst High Intensity Objects or Normal Intensity Objects (Supplementary Table S7). All normal gated cells are further classified in healthy, fragmented or pyknosed nuclei (Supplementary Table S7). […] Total cell count was normalized against total cell count of cells treated with 0.1% DMSO.

[3] = U2OS, 10 µM, 24 h, healthy nuclei only

## CN1CCCC(n2nc(Cc3ccc(Cl)cc3)c3ccccc3c2=O)CC1 (stereo not drawn) [azelastine]
U2OS cells [1]; U2OS, 1 µM
  mitochondrial mass increase detected: mitochondrial mass increase

## CCn1cc(-c2ccnc3[nH]c(-c4cccc(CN(C)C)c4)cc23)c(-c2ccc(NC(=O)N(C)C)cc2)n1 [GSK1070916]
U2OS cells [1]; U2OS, 1 µM
  mitochondrial mass increase detected: mitochondrial mass increase

## Nc1ccc(C(=O)Nc2cccc(-c3nc(N4CCOCC4)c4oc5ncccc5c4n3)c2)cn1 [YM-201636]
U2OS cells [1]; U2OS, 1 µM
  marked for tubulin effects while crossing no other phenotypic threshold: marked to have tubulin effects

## C=CC(=O)Nc1cccc(Oc2nc(Nc3ccc(N4CCN(C)CC4)cc3OC)ncc2Cl)c1 [WZ-4002]
U2OS cells [1]; 1 µM, 12 h
  effect on tubulin: effect on tubulin
U2OS cells [1]; U2OS, 1 µM, 24 h
  membrane permeabilization effects: membrane permeabilization

## CN([C@@H](Cc1ccc(OS(=O)(=O)c2cccc3cnccc23)cc1)C(=O)N1CCN(c2ccccc2)CC1)S(=O)(=O)c1cccc2cnccc12 [KN-62]
U2OS cells [1]; U2OS, 1 µM
  tubulin effects: > 90%

## Cc1[nH]c(/C=C2\C(=O)Nc3ccc(S(=O)(=O)N(C)c4cccc(Cl)c4)cc32)c(C)c1C(=O)N1CCN(C)CC1 [SU11274]
U2OS cells [1]; U2OS, 1 µM
  marked for tubulin effects while crossing no other phenotypic threshold: marked to have tubulin effects

## Nc1ncnc2c1c(-c1cccc(OCc3ccccc3)c1)cn2[C@H]1C[C@@H](CN2CCC2)C1 [NVP-AEW541]
U2OS cells [1]; U2OS, 1 µM
  mitochondrial mass increase detected: mitochondrial mass increase

## COc1ncc(-c2ccc3nccc(-c4ccnnc4)c3c2)cc1NS(=O)(=O)c1ccc(F)cc1F [omipalisib]
U2OS cells [1]; U2OS, 1 µM, 24 h
  viability at 1 µM: ≤ 40%
U2OS cells [1]; U2OS, 1 µM
  decrease of healthy nuclei count: more than 60%

## CS(=O)(=O)N1CCCC(NC(=O)[C@H](CCC2CCCCC2)NC(=O)c2ccc(CNC(=O)c3cnc4ccccn34)cc2)C1 (stereo partly drawn) [SR-302]
U2OS cells [1]; [3]
  tubulin effect: more than 90%

## CCN1CCN(c2ccc(Nc3cc(N(C)C(=O)Nc4c(Cl)c(OC)cc(OC)c4Cl)ncn3)cc2)CC1 [infigratinib]
U2OS cells [1]; U2OS, 1 µM, 24 h
  viability at 1 µM: ≤ 40%

## C[C@@H]1CC[C@@]2(OC1)O[C@H]1[C@@H](O)[C@H]3[C@@H]4CC[C@H]5C[C@@H](O[C@@H]6O[C@H](CO)[C@H](O[C@@H]7O[C@H](CO)[C@@H](O)[C@H](O[C@@H]8OC[C@@H](O)[C@H](O)[C@H]8O)[C@H]7O[C@@H]7O[C@H](CO)[C@H](O)[C@H](O[C@@H]8O[C@H](CO)[C@@H](O)[C@H](O)[C@H]8O)[C@H]7O)[C@H](O)[C@H]6O)[C@H](O)C[C@]5(C)[C@H]4CC[C@]3(C)[C@H]1[C@@H]2C [digitonin]
U2OS cells [1]; U2OS, 10 µM, 24 h
  healthy nuclei (healthy cells): more than 50%
U2OS cells [2]; 14 h, read-out: IC 50 14 h
  IC50: 10.6 µM
U2OS cells [2]; 26 h, read-out: IC 50 26 h
  IC50: 11.6 µM
U2OS cells [2]; 42 h, read-out: IC 50 42 h
  IC50: 11.5 µM
U2OS cells [2]; 56 h, read-out: IC 50 56 h
  IC50: 15.1 µM

## Cc1c(P(=S)(c2ccccc2)c2ccccc2)n2ccccc2[n+]1C/C=C/c1ccccc1 [ML154]
U2OS cells [1]; U2OS, 1 µM, 24 h
  viability at 1 µM: ≤ 40%

## C[C@@]1(C(=O)Nc2ccc(F)nc2)CCCN1c1nc(Nc2cc(C3CC3)n[nH]2)c2cccn2n1 [BMS-754807]
U2OS cells [1]; U2OS, 1 µM, 24 h
  viability at 1 µM: ≤ 40%

## Nc1c(C(=O)NCc2ccc(C(=O)NCCCC3CCCCC3)cc2)cnn1-c1ccccc1 [SR-318]
U2OS cells [1]; U2OS, 1 µM
  marked for tubulin effects while crossing no other phenotypic threshold: marked to have tubulin effects
U2OS cells [1]; U2OS, 10 µM, 24 h
  healthy nuclei (healthy cells): over 80%
U2OS cells [1]; [3]
  increase in mitochondrial mass in comparison to DMSO: over 60%
  tubulin effect: more than 90%

## Cc1cc(C)cc(-c2cnc3cc(Cl)c(-c4cccc(O)c4)cc3c2OCCCN)c1 [TC-G 1003]
U2OS cells [1]; U2OS, 1 µM
  mitochondrial mass increase detected: mitochondrial mass increase

## CCOC(=O)c1c(C)[nH]c2ccc3c(c12)CN1CCc2cc(OC)ccc2C1O3 (stereo not drawn) [PD 102807]
U2OS cells [1]; U2OS, 1 µM
  mitochondrial mass increase detected: mitochondrial mass increase

## CC[C@@]1(O)C(=O)OCc2c1cc1n(c2=O)Cc2cc3c(CN(C)C)c(O)ccc3nc2-1 [topotecan]
HCT116-FUCCI cells
  change of FUCCI nuclei population in comparison to DMSO: increase in green nuclei
U2OS cells [1]; U2OS, 1 µM
  mitochondrial mass increase detected: mitochondrial mass increase
U2OS cells [1]; U2OS, 10 µM, 24 h
  healthy nuclei (healthy cells): less than 50%
U2OS cells [1]; U2OS, 10 µM, after 24 h, in one of two biological replicates
  Hoechst High Intensity Objects: > 30%

## Cc1cc(C)c(-n2ccn3nc(-c4cccnc4)cc23)cc1NC(=O)c1cc(C#N)cc(S(F)(F)(F)(F)F)c1 [BAY-826]
U2OS cells [1]; U2OS, 1 µM
  marked for tubulin effects while crossing no other phenotypic threshold: marked to have tubulin effects

## O=C(CCCCCCNC(=O)c1cnc(N(c2ccccc2)c2ccccc2)nc1)NO [ricolinostat]
U2OS cells [2]; 26 h, read-out: IC 50 26 h
  IC50: 13.5 µM
U2OS cells [2]; 42 h, read-out: IC 50 42 h
  IC50: 13.4 µM
U2OS cells [2]; 56 h, read-out: IC 50 56 h
  IC50: 13.7 µM

Source: article PMC8878468, “Image-Based Annotation of Chemogenomic Libraries for Phenotypic Screening” (Molecules, 2022)
